Laboratory results as given in patent publication US10456553B2, “Device and methods for targeted tissue drug delivery” (NATIVE CARDIO, INC., priority 2012, dated 2019).

Columns and labels:
[1] = set-up: species or system swine; conditions: in vivo
Protocol: Studies were conducted to determine the differences between intrapericardial (IPC) drug delivery versus intravenous (IV) drug delivery of the antiarrhythmic drug procainamide. In one study, using two groups of swine, investigators administered procainamide intravenously (n=6) or […] (n=7) using sequential intravenous doses of 2, 8, 16 mg/kg (cumulative was 2, 10, 26 mg/kg) or sequential pericardial doses of 0.5, 1, and 2 mg/kg (cumulative was 0.5, 1.5, 3.5 mg/kg). Each dose was re-suspended in 10 ml and administered at a rate of 1 mL/min. The pharmacokinetics of the two drug delivery methods was statistically significant. Pericardial delivery produced peak drug concentrations within the range of 250 to 900 ug/ml while the measurable level for plasma concentration was low (<1 ug/mL). […] It should be noted that the pericardial fluid concentration during intravenous delivery was 100 times less than that of intrapericardial delivery. The atrial electrophysiologic values were similar between both sets of delivery methods, indicating a lower direct dose can achieve similar therapeutic responses. The 3.5 mg/kg cumulative pericardial dose increased right atrial ERP by 22% from the baseline, while the 10 and 26 mg/kg cumulative intravenous doses prolonged atrial ERP by 24% and 18%, respectively. […]

atria = test: Atrial electrophysiology (right atrial ERP) and atrial fibrillation induction after pericardial or intravenous procainamide; assay type: in vivo; conditions: swine
Protocol: (§1) Studies were conducted to determine the differences between intrapericardial (IPC) drug delivery versus intravenous (IV) drug delivery of the antiarrhythmic drug procainamide. In one study, using two groups of swine, investigators administered procainamide intravenously (n=6) or […] (n=7) using sequential intravenous doses of 2, 8, 16 mg/kg (cumulative was 2, 10, 26 mg/kg) or sequential pericardial doses of 0.5, 1, and 2 mg/kg (cumulative was 0.5, 1.5, 3.5 mg/kg). Each dose was re-suspended in 10 ml and administered at a rate of 1 mL/min. The pharmacokinetics of the two drug delivery methods was statistically significant. Pericardial delivery produced peak drug concentrations within the range of 250 to 900 ug/ml while the measurable level for plasma concentration was low (<1 ug/mL). […] It should be noted that the pericardial fluid concentration during intravenous delivery was 100 times less than that of intrapericardial delivery. The atrial electrophysiologic values were similar between both sets of delivery methods, indicating a lower direct dose can achieve similar therapeutic responses. The 3.5 mg/kg cumulative pericardial dose increased right atrial ERP by 22% from the baseline, while the 10 and 26 mg/kg cumulative intravenous doses prolonged atrial ERP by 24% and 18%, respectively. In addition, the cumulative doses of 3.5 mg/kg (pericardial) and 26 mg/kg (intravenous) prevented atrial fibrillation induction in 71% and 83% of the animals, respectively.

[2] = system: ventricular electrophysiology; test: Ventricular electrophysiology, heart rate and systemic blood pressure after pericardial or intravenous procainamide; assay type: in vivo; conditions: swine
Protocol: as §1

pericardial fluid concentration during intravenous delivery relative to intrapericardial delivery ([1]; swine): 100 times less
SMILES: CCN(CC)CCNC(=O)c1ccc(N)cc1 [procainamide]
concentrations within the pericardial fluid ([1]; iv): equal to that of the plasma concentration
animals in which atrial fibrillation induction was prevented (atria; 3.5 mg/kg cumulative dose, pericardial): 71%
increase of right atrial ERP from the baseline (atria; 3.5 mg/kg cumulative pericardial dose): 22%
prolongation of atrial ERP (atria; 10 mg/kg cumulative intravenous dose): 24%
animals in which atrial fibrillation induction was prevented (atria; 26 mg/kg cumulative dose, intravenous): 83%
prolongation of atrial ERP (atria; 26 mg/kg cumulative intravenous dose): 18%
atrial ventricular conduction times ([2]; 26 mg/kg intravenous dose): prolonged
interventricular conduction (RV and LV activation) ([2]; 26 mg/kg intravenous dose): reduced
effects on ventricular electrophysiology, heart rate, or systemic blood pressure ([2]; pericardial delivery): no significant effects
